Assay [1] relates to ATXN3 Pre-mRNA (exon 4 skipping). Nature of the assay: RT-qPCR Assay to Quantify Exon 4 Skipping in ATXN3 Pre-mRNA in Cells. The following applies: cells incubated with compound 24 h, normalised to GAPDH, 7-point concentration curve. The assay is classed as cell-based. How it is done:
(§1) Test compounds were serially diluted 3.16-fold in 100% DMSO to generate a 7-point concentration curve. Aliquots of 0.5 μL of diluted compounds were transferred to a 96-well flat bottom plate by a liquid handler. An aliquot of 0.5 μL DMSO was also transferred to separate wells and used as controls. Duplicate samples were set up for each compound concentration and for the DMSO control.
Cells were thawed and incubated in cell culture media (DMEM, 10% FBS, and 1% antibiotic cocktail) for 72 h. Cells were trypsinized, counted, and re-suspended to a concentration of 100,000 cells/mL in cell culture media. A 100 μL aliquot of the cell suspensions were plated at 10,000 cells per well in the compound containing 96 well microtiter plate and incubated for in a cell culture incubator (37° C., 5% CO2, 100% relative humidity).
After 24 h, media was aspirated from the cells and 50 μL of the RCL2 lysis buffer (10 mM Tris-HCL pH 7.4, 150 mM NaCl, 0.33% IGEPAL® CA-630) was added to each well and incubated at room temperature for 1 min. Chilled nuclease free water (50 μL per well) was added and the plates were immediately transferred on ice. After 1 min on ice, plates were frozen at −80° C. overnight.
Preparation of RT-qPCR Reaction Mixture:
An aliquot of 2 μL/well of the cell lysates was transferred using the liquid handler to the Armadillo 384-Well PCR plate containing 8 μL/well of the RT-qPCR reaction mixture that was prepared as detailed above. The plates were then sealed with MicroAmp™ Optical Adhesive Film followed by spinning down for 1 min and placed in the CFX384 thermocycler (BioRad).
The RT-qPCR was carried out at the following temperatures for the indicated time: • Step 1: 48° C. (30 min) • Step 2: 95° C. (10 min) • Step 3: 95° C. (15 sec) • Step 4: 60° C. (1 min); then, repeated Steps 3 and 4 for a total of 40 cycles.
The percent exon 4 skipping was calculated for each dose of compound treatment using Equations 1 and 2.
Data were fit to a dose response curve and the IC50 was interpolated using XLfit® statistical and curve fitting package.
An IC50 value between >2.0 μM and ≤3.0 μM is indicated by one star (*). […] IC50 value between >0.5 μM and ≤1.0 μM is indicated by four stars (****). An IC50 value ≤0.5 μM is indicated by five stars (*****).

The test system of assay [2] is Endogenous Total ATXN3 (tATXN3) Protein. Nature of the assay: Endogenous Total ATXN3 (tATXN3) Protein Assay (MSD immunoassay of cell lysates). It is filed as cell-based. The following applies: cells incubated with compound 48 h; 7-point concentration curve; MSD plate readout. How it is done:
Meso Scale Discovery (MSD) 96-well or 384-well plates were coated overnight at 4° C. with Ataxin 3 mouse monoclonal antibody (Invitrogen, MA3-082) at a concentration of […] in PBS (30 μL per well). Plates were then washed three times with 300 μL wash buffer (0.05% TWEEN®-20, polyethylene glycol sorbitan monolaurate, in PBS) and blocked (Meso Scale Diagnostics, R93BA-1; 5% BSA in PBS) for 2 h at room temperature with rotational shaking and then washed three times with wash buffer.
as §1
Cells were thawed and incubated in cell culture media (DMEM, 10% FBS, and 1% antibiotic cocktail) for 72 h. Cells were trypsinized, counted, and re-suspended to a concentration of 100,000 cells/mL in cell culture media. A 100 μL aliquot of the cell suspensions were plated at 10,000 cells per well in the compound containing 96 well microtiter plate and incubated for in a cell culture incubator (37° C., 5% CO2, 100% relative humidity). After 48 h, the medium was removed and 50-100 μL of lysis buffer (Meso Scale Diagnostics, R60TX-2) containing 1× halt protease inhibitor cocktail of (Thermo Scientific, Halt™ Protease Inhibitor Cocktail, 78430) per well was added to cells to provide a “cell lysate”. The plate was placed on a shaker at 4° C. for 30 minutes, then stored at −80° C.
Cell lysate samples (25 μL) were transferred to the antibody-coated MSD plate and incubated overnight at 4° C. After removal of the lysates, the plate was washed three times with wash buffer, and 25 μL of Ataxin 3 recombinant rabbit monoclonal antibody (Invitrogen, #702788) secondary antibody (diluted to 0.25 μg/mL in 0.05% TWEEN®-20 in blocking buffer) was added to each well and incubated with shaking for 1-2 h at room temperature. Following incubation with the secondary antibody, the wells were rinsed with wash buffer and then 25 μL of Anti Rabbit Antibody Goat SULFO-TAG Labeled (Meso Scale Diagnostics, R32AB-1) detecting antibody (diluted to 0.25 μg/mL in 0.05% TWEEN®-20 in blocking buffer) was added to each well and incubated with shaking for 1 h at room temperature. After rinsing three times with wash buffer, 150 μL of Read Buffer T with surfactant (tris-based buffer containing tripropylamine, Meso Scale Diagnostics, R92TC-1) were added to each empty well, and the plate was imaged on a SI 6000 imager (MSD) according to manufacturers' instructions provided for 96- or 384-well plates.

The values that follow come from patent US20240043444A1, “METHODS FOR TREATING SPINOCEREBELLAR ATAXIA TYPE 3” (PTC Therapeutics, Inc., priority 2021, published 2024).

As a reminder, the IC50 is the point on the concentration scale where inhibition reaches its midpoint.

`Cc1c(C[C@H](C)N)sc2c(NCc3ncc(F)s3)nc(Cl)nc12` [Cpd 93, 6-[(2S)-2-aminopropyl]-2-chloro-N-[(5-fluoro-1,3-thiazol-2-yl)methyl]-7-methylthieno[3,2-d]pyrimidin-4-amine]: the IC50 in assay [1] and in assay [2] was no more than 500 nM throughout.

For the molecule `Cc1c([C@@H](C)N)sc2c(NCc3ccco3)nc(Cl)nc12` [Cpd 94, 6-[(1R)-1-aminoethyl]-2-chloro-N-[(furan-2-yl)methyl]-7-methylthieno[3,2-d]pyrimidin-4-amine], the “IC50 (exon 4 skipping in ATXN3 pre-mRNA)” value in assay [1] was “inactive”. In addition, in assay [2], the “IC50 (average, total ATXN3 protein)” value was “inactive”.

In the case of `Cc1c(C[C@@H](N)CCO)sc2c(NCc3ccco3)nc(Cl)nc12` [Cpd 97, (3S)-3-amino-4-(2-chloro-4-{[(furan-2-yl)methyl]amino}-7-methylthieno[3,2-d]pyrimidin-6-yl)butan-1-ol], the IC50 in assay [1] and in assay [2] was no more than 500 nM throughout.
